# Legend:
# [1] = system: Aspergillus niger ATCC 16888; assay: Antifungal activity, radial growth technique on PDA medium; format: cell-based; details: ATCC16888, read-out: IC50, inhibition of the growth of A. niger
# Procedure: The antifungal activity was evaluated against two fungi, Aspergillus niger ATCC 16888 and Botrytis cinerea ATCC 11542, isolated and identified with ITS gene (GenBank accession number AY373852, A. S. Taha et al., BioResources 2019, 14, 6025-6046). The bioassay was evaluated using the radial growth technique method (P. Wayne, Reference method for broth dilution antifungal susceptibility testing of yeasts, approved standard. CLSI document M27-A2, 2002). Both fungal strains were cultivated aerobically on PDA medium at 25° C. for 14 days. The fungal spores were collected with sterile cotton swabs and suspended in sterile water, and the concentrations were adjusted according to the requirements of the antifungal assays to be performed.
# Flavonoids oligomers were dissolved in DMSO ([…]), then transferred into sterilized warm PDA medium (40 to 45° C.) to achieve a final concentration of 1.0 mg/mL, 0.6 mg/mL and 0.4 mg/mL, before immediately pouring into 24-well sterile plastic microtitration plates containing flat-bottomed wells (Corning Incorporated, costar). […]
# From a 7-day-old colony, the fungus with discs of 9 mm diameter was transferred to the center of the treated PDA plates and controls. […] All the tested concentrations, as well as positive and negative controls, were measured in triplicate.
# α-amylase = molecular target: T1, α-amylase (Sus scrofa, UniProt P00690); assay: High-throughput starch hydrolase inhibition assay (turbidity, corn starch); format: biochemical
# T1 sequence (P00690 16-511): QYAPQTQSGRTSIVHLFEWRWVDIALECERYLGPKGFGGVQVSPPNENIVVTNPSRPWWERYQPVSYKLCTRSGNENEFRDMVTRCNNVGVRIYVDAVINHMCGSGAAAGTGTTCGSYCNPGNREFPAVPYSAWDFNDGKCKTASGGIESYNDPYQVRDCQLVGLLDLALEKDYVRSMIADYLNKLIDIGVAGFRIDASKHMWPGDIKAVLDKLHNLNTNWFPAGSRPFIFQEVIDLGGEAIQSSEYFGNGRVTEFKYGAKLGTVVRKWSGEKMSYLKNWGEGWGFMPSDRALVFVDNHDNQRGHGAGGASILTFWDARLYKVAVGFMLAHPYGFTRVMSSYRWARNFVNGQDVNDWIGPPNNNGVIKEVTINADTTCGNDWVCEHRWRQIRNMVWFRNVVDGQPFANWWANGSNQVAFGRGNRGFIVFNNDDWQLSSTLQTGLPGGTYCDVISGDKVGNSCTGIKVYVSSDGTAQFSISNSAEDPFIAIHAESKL
# Procedure: (§1) The inhibitory activity of each fraction obtained on α-amylase and α-glucosidase were determined using the turbidity measurement according to a reported method (Liu, Song, Wang, & Huang, 2011, Journal of agricultural and food chemistry 2011 Vol. 59 Issue 18 Pages 9756-9762). Corn starch (20 mg/mL) was suspended in sodium phosphate buffer (0.1 M, pH 6.9) and gelatinized at 100° C. for 2.5 min. The inhibitor solution was diluted in buffer to appropriate concentrations. Acarbose was used as a positive control and a reference standard. α-amylase solution (2 U/mL in buffer, 20 μL) or α-glucosidase solution (1×10−2 U/mL in buffer) was pre-incubated with inhibitor solution (20 μL) with series of concentrations in a 96-well microplate and kept at 37° C. for 15 min. The reaction was initiated by injecting 60 μL of the gelatinized corn starch solution. The turbidity changes were recorded at 660 nm every minute for 2 h using a Synergy HT microplate reader (Biotek Instruments Inc., Winooski, VT, USA). The inhibition percentage was calculated using Equation 10.
# (§2) Inhibition (%)=(AUCsample−AUCcontrol)/AUCsample×100% (Equation 10)
# (§3) Where AUCsample is the area under the inhibitory curve and AUCcontrol is the area under the curve negative control. The IC50 can be defined as the concentration of an inhibitor that produces 50% inhibition of enzyme activity under a specified assay condition. It was obtained from interpolation of percentage of inhibition against inhibitor concentration curve. In order to avoid run-to-run error due to fluctuation of enzymatic activity, the acarbose equivalent (AE) was used to express the inhibitory activity of sample based on the following equation:
# (§4) AE of a sample=IC50 of acarbose/IC50 of a sample (Equation 11)
# [2] = Determination of pKa values by 13C NMR spectroscopy under argon; format: physicochemical
# Procedure: Luteolin (200 mg) was added in the three-necks round bottle flask fitted with a pH meter under argon (FIG. 12). Degassed water (20 mL) was added with stirring. To the solution, degassed aqueous KOH solution was injected through a syringe to adjust the pH. Aliquots (500 μL) of samples at a given pH value were transferred to 5 mm NMR tubes (Armar Chemicals, Switzerland). To the same NMR tube, deuterium oxide (D20, 5.0 μL) was added introduced for deuterium lock and a DMSO-d6 solution encapsulated in capillary tube (FIG. 12) was placed in the tube as the external standard for (at 2.50 ppm for CD3SOCD3, H. E. Gottlieb, V. Kotlyar & A. Nudelman, J. Org. Chem. 1997, 62, 7512-7515). The spectra were recorded and analyzed with MestReNova (Mestrelab research, version 5.2.5-4119). The resulting sigmoidal curve was subjected to nonlinear curve fitting using Prism® (GraphPad, version 5.0b and 5.0f). The dissociation constant pKa was calculated using the Henderson-Hasselback equation (Equation 1-4).
# Where LH4, LH3^−, LH2^2−, LH^3− and L^4− are the species of luteolin in fully protonated form, first deprotonated, second deprotonated, third deprotonated 100% deprotonated form.
# The chemical shift of the carbons in luteolin is dependent on the relative concentrations of the conjugate pair. For a solution at pH within pKa1 range, and the species in solution is ˜100% protonated (LH4), and the chemical shifts are that of the protonated species, δlow−1. For a solution at a higher pH the species in solution is first deprotonated (LH3^−), and the chemical shifts are that of the deprotonated species, δhigh−1.
# Equation 7-8 were applied to determine the mole fraction of conjugate pair from chemical shift of a specific carbon. The assignment of ^13C NMR of luteolin was further confirmed by HSQC and HMBC methods with 2D correlation with ^1H NMR.
# [3] = Solubility in water (observation); format: physicochemical; details: in water or slightly basic aqueous solution
# blood glucose = assay: Glycemic response of mice after starch gavage; format: in vivo
# Procedure: A 10% (w/v) starch solution was prepared by addition of distilled water to reagent grade corn starch and heating the solution it in a boiling water bath for about 15 minutes until it was completely gelatinized. 8-week-old male wild-type C57BL/6J mice were fasted overnight (free water intake), and weighed the next day. The tail of the mice was trimmed and the blood was taken for measurement of fasting blood glucose concentration with a Roche blood glucose meter. Feeding method a, “YX2+Starch”: Luteolin dimer (2a) was gavaged as a 2 mg/mL water solution, at the dosage level of 20 mg/kg body weight of the animal. Thirty minutes later, the 10% (w/v) starch solution was gavaged at 1 g/kg body weight. Feeding method b, “Starch (+YX2)”: Luteolin dimer (2a) was mixed with starch at 0.2% ratio by dried weight and mixed with water (1:9 by weight) to give a slurry labelled as Starch (+YX2) (FIG. 41). The mixture was gavaged to mice at with 1 g/kg body weight. In comparison, luteolin (1a or YX1) was mixed with starch at 0.2% by weight. The resulting mixture was further mixed with water to give 10% starch slurry labelled as starch (+YX1) (FIG. 41). The mice were gavaged with 1 g/kg body weight. The blood glucose values were measured at 30, 60, 90, 120 minutes to make the blood glucose curve, GraphPad draws the blood glucose response curve after meal, and the area under the curve was calculated.
# [4] = literature (Electrochim. Acta 2013); cited from earlier work
# α-glucosidase = assay: High-throughput starch hydrolase inhibition assay (turbidity, corn starch); format: biochemical
# Procedure: as §1, §2, §3, §4
# [5] = 0.2% mixture of compound in starch, gavaged at 1 g/kg body weight
SMILES,IC50 [1],activity in inhibiting α-amylase compared with acarbose (α-amylase),pKa3 ([2]; C(3′)-OH),pKa2 ([2]; C(4′)-OH),pKa4 ([2]; C(5)-OH),"pKa1 ([2]; C(7)-OH, first deprotonation)",solubility [3],glycemic response (blood glucose; [5]),"pKa1, literature values [4]",activity in inhibiting α-glucosidase compared with acarbose (α-glucosidase),glycemic response (blood glucose; 20 mg/kg by gavage 30 minutes before starch at 1 g/kg body weight (curve YX2+starch)),"glycemic response (blood glucose; mice fed only with compound at 20 mg/kg body weight, no starch)"
"O=c1cc(-c2ccc(O)c(O)c2-c2c(O)cc3oc(-c4ccc(O)c(O)c4-c4c(O)cc5oc(-c6ccc(O)c(O)c6)cc(=O)c5c4O)cc(=O)c3c2O)oc2cc(O)cc(O)c12 [Compound 3a, 6-(6-(5,7-dihydroxy-4-oxo-4H-chromen-2-yl)-2,3-dihydroxyphenyl)-2-(2-(2-(3,4-dihydroxyphenyl)-5,7-dihydroxy-4-oxo-4H-chromen-6-yl)-3,4-dihydroxyphenyl)-5,7-dihydroxy-4H-chromen-4-one]",0.96 µM,,,,,,,,,,,
O=c1cc(-c2ccc(O)c(O)c2)oc2cc(O)cc(O)c12 [luteolin],,no activity,12.78,8.93,13.03,8.00,poor solubility,almost the same as that of the mice fed only with same dosage of starch,~6.0,,,
"O=c1cc(-c2ccc(O)c(O)c2-c2c(O)cc3oc(-c4ccc(O)c(O)c4)cc(=O)c3c2O)oc2cc(O)cc(O)c12 [Compound 2a, 6-(6-(5,7-dihydroxy-4-oxo-4H-chromen-2-yl)-2,3-dihydroxyphenyl)-2-(3,4-dihydroxyphenyl)-5,7-dihydroxy-4H-chromen-4-one]",0.86 µM,comparable,,,,,,comparable to that of the mice fed only with same dose of starch,,comparable,no glycemic response,did not lead to glycemic response
"O=c1cc(-c2ccc(O)c(O)c2-c2c(O)cc3oc(-c4ccc(O)cc4)cc(=O)c3c2O)oc2cc(O)cc(O)c12 [Compound 2b, 6-(6-(5,7-dihydroxy-4-oxo-4H-chromen-2-yl)-2,3-dihydroxyphenyl)-5,7-dihydroxy-2-(4-hydroxyphenyl)-4H-chromen-4-one]",,even higher,,,,,,,,even higher,,

# From US20240122894A1, “METHODS TO SYNTHESIZE FLAVONOID DIMERS AND OLIGOMERS AND THE USE THEREOF” (National University of Singapore, priority 2020, published 2024)
